Measured values taken from EP0354042A2, “Aminobenzoic-acid derivatives to reduce side effects induced by an administration of immuno-suppressant” (priority 1988, dated 1990).

Assays:
[1] = test system: Jcl:ICR mice; experiment: Acute toxicity (LD50, Litchfield-Wilcoxon); format: in vivo; conditions: observed 7 days; for LD₅₀ Value Intraperitoneal: in physiological saline solution; for LD₅₀ Value Oral: oral by stomach sonde, in distilled water
Description: The acute toxicity was studied with Jcl:ICR mice through intraperitoneal route and oral route. For intraperitoneal route, the present substance was dissolved in a physiological saline solution and a predetermined dose of the substance was administered with an injector to the cavity. For oral route, the present substance was dissolved in a distilled water and administered forcibly through a stomach sonde.
After the administration, observation of toxicopathic symptoms of the mice were continued for 7 days and based on time to time death rates of the mice, LD₅₀ values were calculated. Both surviving and dead mice were anatomized and observed certain organs.

[2] = test system: Wistar male rats; experiment: Saccharide tolerance test (pancreas function) of rats given CsA with the present substance; format: in vivo; conditions: CsA 25 mg/kg/day i.p. 3 weeks plus present substance 300 mg/kg/day orally
Description: (§1) Various clearance tests and a saccharide tolerance test were performed after completion of the administrations. Then, after sacrificing the rats, their blood was taken for serum biochemical and general blood tests.

[3] = test system: TA98 of Salmonella typhimurium; experiment: Reversion assay (reversion colony test) TA98; format: cell-based
Description: (§2) In addition, a reversion assay was performed using TA98 and TA100 of Salmonella typhimurium (both are histidine-requiring bacteria).
(§3) 10% by volume of 0.5 mM bithion solution containing 0.5 mM histidine was added to a soft agar solution (prepared with 6g of NaCl, 6g of agar and 1,000 ml of distilled water). Then, 0.1 ml of a solution containing 1 x 10⁸ of the bacteria and 0.1 ml of a solution of the present substance were added to 2 ml of the soft agar solution, mixed well and obtained soft agar solution was multilayered on a minimal agar medium. The medium layered was cultured at 37°C for 2 days and number of reversion colonies was counted. Furylfuramide (AF2) was used as a positive control.

[4] = test system: Bacillus subtilis M45; experiment: Mutagenicity Rec-assay, recombination repair deficient strain; conditions: for Growth Inhibited Area M45 - H17: difference between strains
Description: (§4) First, mutagenecity was studied with Rec-assay. […] The present substance was dissolved with sterlized water, 0.05 ml of the solution was absorbed by a round filter paper having a diameter of 8 mm and immediately the filter paper was laid on the medium (B-II agar) in a manner to cover each of the satrt point of the streak. Then, the mdium was cultured for 16 hours at a temperature of 37°C and measured growth inhibited area. Kanamycin was used as a negative control and mitomycin as a positive control.

[5] = test system: Wistar male rats; experiment: Kidney function (inulin clearance, serum creatinine) of rats given CsA with the present substance; format: in vivo; conditions: CsA 25 mg/kg/day i.p. 3 weeks plus present substance 300 mg/kg/day orally
Description: as §1

[6] = test system: human lymphocyte; experiment: Mixed lymphocyte culture, 3H-thymidine uptake (proliferation of lymphocytes); format: cell-based; conditions: CsA 0.1 µg/ml plus present substance 100 µg/ml, cultured 6 days;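 note: percent suppression of proliferation derived from uptake with CsA alone versus CsA plus substance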
Description: A mixture of 50 µl of human lymphocyte (1.6 x 10⁶/ml) with 50 µl of the lymphocytes treated with mitomycin C (MMC) (1.7 x 10⁶/ml) was cultured for 6 days and an uptake of ³H-thymidine, an index of proliferation of lymphocyte, was studied. The medium used for culture comprised bovine fetal serum (10% in quantity) and RPMI 1640 (90% in quantity). […] From the calculated ratio, the effects of the present substance on immuno function were studied.

[7] = test system: Wistar male rats; experiment: Serum biochemical test, total bilirubin (liver function) of rats given CsA with the present substance; format: in vivo; conditions: CsA 25 mg/kg/day i.p. 3 weeks plus present substance 300 mg/kg/day orally
Description: as §1

[8] = Body weight of rats given CsA with the present substance; format: in vivo, Wistar male rats; conditions: at completion of the test; CsA 25 mg/kg/day i.p. 3 weeks plus present substance 300 mg/kg/day orally
Description: as §1

[9] = test system: Bacillus subtilis H17; experiment: Mutagenicity Rec-assay, recombination repair proficient strain
Description: as §4

[10] = test system: TA100 of Salmonella typhimurium; experiment: Reversion assay (reversion colony test) TA100; format: cell-based
Description: as §2, §3

[11] = 5,000 µg/disk, 37°C for 2 days, Drug-free Control 13
[12] = 5,000 µg/disk, 16 hours at 37°C
[13] = 5,000 µg/disk, 37°C for 2 days, Drug-free Control 149

Structure (SMILES)	LD₅₀ Value Intraperitoneal [1]	LD₅₀ Value Oral [1]	Blood sugar value measured 10 minutes after the test [2]	Insuline Value 10 Min.After The Test [2]	Insuline Value Before The Test [2]	No. of Reversion Colony TA98 [3, 11]	Growth Inhibited Area M45 ([4]; 500 µg/disk, 16 hours at 37°C)	Growth Inhibited Area M45 - H17 ([4]; 500 µg/disk)	Growth Inhibited Area M45 [4, 12]	Growth Inhibited Area M45 - H17 ([4]; 5,000 µg/disk)	Kidney Function Inulin Clearance [5]	Kidney Function Serum Creatinine [5]	Depressing Ratio [6]	TBI (seerum total bilirubin value) [7]	Body Weight [8]	Growth Inhibited Area H17 ([9]; 500 µg/disk, 16 hours at 37°C)	Growth Inhibited Area H17 [9, 12]	No. of Reversion Colony TA100 [10, 13]	other results
O=C(O)c1ccc(NC2OC[C@H](O)[C@H](O)[C@H]2O)cc1 (stereo partly drawn) [Compound 2, p-Aminobenzoic acid-N-L-arabinoside]	10.22 g/kg	10.80 g/kg	588 mg/dL	6.12 mµ/ml	4.02 mµ/ml	3 n/plate	0 mm	0 mm	0 mm	0 mm	1.81 mL/min	0.65 mg/dL	26%	0.35 mg/dL	220 g	0 mm	0 mm	51 n/plate	
O=C([O-])c1ccccc1NC1OCC(O)C(O)C1O.[Na+] [Compound 4, o-Aminobenzoic acid-N-L-arabinoside]	7.48 g/kg	6.35 g/kg	591 mg/dL	6.22 mµ/ml	3.89 mµ/ml	4 n/plate	0 mm	0 mm	8 mm	4 mm	1.78 mL/min	0.67 mg/dL	26%	0.37 mg/dL	218 g	0 mm	4 mm	59 n/plate	
O=C(O)c1ccc(NC2OC[C@@H](O)[C@H](O)[C@H]2O)cc1 (stereo partly drawn) [Compound 6, p-Aminobenzoic acid-N-D-xyloside]	11.04 g/kg	11.75 g/kg	598 mg/dL	6.20 mµ/ml	4.28 mµ/ml	4 n/plate	0 mm	0 mm	0 mm	0 mm	1.70 mL/min	0.66 mg/dL	26%	0.35 mg/dL	208 g	0 mm	0 mm	58 n/plate	
O=C(O)c1ccccc1NC1OC[C@@H](O)[C@H](O)[C@H]1O (stereo partly drawn) [Compound 8, o-Aminobenzoic acid-N-D-xyloside]	9.27 g/kg	6.35 g/kg	605 mg/dL	6.18 mµ/ml	4.21 mµ/ml	4 n/plate	0 mm	0 mm	7 mm	4 mm	1.72 mL/min	0.65 mg/dL	27%	0.38 mg/dL	211 g	0 mm	3 mm	166 n/plate	
O=C(O)c1ccc(NC2O[C@H](CO)[C@@H](O)[C@H](O)[C@H]2O)cc1 (stereo partly drawn) [Compound 10, p-Aminobenzoic acid-N-D-glucoside]	> 15.00 g/kg	> 15.00 g/kg	612 mg/dL	6.02 mµ/ml	4.05 mµ/ml	11 n/plate	0 mm	0 mm	0 mm	0 mm	1.85 mL/min	0.65 mg/dL	26%	0.36 mg/dL	235 g	0 mm	0 mm	104 n/plate	
O=C([O-])c1ccccc1NC1O[C@H](CO)[C@@H](O)[C@H](O)[C@H]1O.[Na+] (stereo partly drawn) [Compound 12, o-Aminobenzoic acid-N-D-glucoside]	13.38 g/kg	8.96 g/kg	589 mg/dL	6.12 mµ/ml	4.11 mµ/ml	5 n/plate	0 mm	0 mm	5 mm	3 mm	1.88 mL/min	0.64 mg/dL	27%	0.36 mg/dL	232 g	0 mm	2 mm	151 n/plate	
O=C(O)c1ccc(NC2O[C@H](CO)[C@H](O)[C@H](O)[C@H]2O)cc1 (stereo partly drawn) [Compound 14, p-Aminobenzoic acid-N-D-galactoside]	12.00 g/kg	14.55 g/kg	584 mg/dL	6.10 mµ/ml	4.13 mµ/ml	7 n/plate	0 mm	0 mm	0 mm	0 mm	1.88 mL/min	0.66 mg/dL	26%	0.33 mg/dL	215 g	0 mm	0 mm	51 n/plate	
O=C([O-])c1ccccc1NC1O[C@H](CO)[C@H](O)[C@H](O)[C@H]1O.[Na+] (stereo partly drawn) [Compound 16, o-Aminobenzoic acid-N-D-galactoside]	7.42 g/kg	6.10 g/kg	587 mg/dL	6.16 mµ/ml	4.22 mµ/ml	6 n/plate	0 mm	0 mm	6 mm	5 mm	1.81 mL/min	0.65 mg/dL	26%	0.34 mg/dL	210 g	0 mm	1 mm	151 n/plate	
NC(=O)/C(=C\c1ccc([N+](=O)[O-])o1)c1ccco1 [Furylfuramide (AF2), Furylfuramide, reference compound]																			No. of Reversion Colony TA98 ([3]; 0.1 µg/disk, positive control): 167 n/plate; No. of Reversion Colony TA100 ([10]; 0.1 µg/disk, positive control): 911 n/plate
NC[C@H]1O[C@H](O[C@H]2[C@H](O)[C@@H](O[C@H]3O[C@H](CO)[C@@H](O)[C@H](N)[C@H]3O)[C@H](N)C[C@@H]2N)[C@H](O)[C@@H](O)[C@@H]1O [Kanamycin, reference compound]																			Growth Inhibited Area M45 ([4]; 10 µg/disk, negative control): 5 mm; Growth Inhibited Area M45 - H17 ([4]; 10 µg/disk, negative control): 1 mm; Growth Inhibited Area H17 ([9]; Bacillus subtilis, 16 h, 10 µg/disk, pH 7): 4 mm
